Reference: PubChem BioAssay AID2060506 (Molecular Pharmacology Branch, DTP, NCI, 2025)
“And” between values parts separate entries of the source, which are not always exact repeats. Equal entries are not always repeated.

Tested on: 598228-144-R-J1-PDC complex spheroid viability
Assay: Anticancer human tumor 598228-144-R-J1-PDC patient-derived serous endometrial adenocarcinoma cell line growth inhibition [GQUAD]
Conditions: for viability, T/C: stronger effect = lower value; for IC50: curve of compound
Excerpt: DNA G-quadruplex Stabilizer Agents in Combinations in Complex Spheroids
A high-throughput screen of multi-cell type tumor spheroids was designed to identify active combinations of DNA G-quadruplex stabilizer agents and targeted small molecules. Complex spheroids include a stromal component modeled by human endothelial cells (HUVEC) and fibroblasts modeled by human mesenchymal stem cells (MSCs). The concentration ranges selected for each drug and investigational agent were based upon clinically achievable concentrations if the clinical Cmax of the agent was known.
Compounds. The drugs and investigational agents: pidnarulex (CX-5461; NSC782164), APTO-253 (NSC789042), BRACO-19 (NSC847499), peposertib (NSC802822), ceralasertib (NSC780249), elimusertib (NSC800525), camonsertib (NSC841442), AZD-1390 (NSC803789), olaparib (NSC753686), talazoparib (NSC767125), ART-558 (NSC835418), sotorasib (NSC818433), MRTX-1133 (NSC836407), SN-38 (NSC673596), topotecan (NSC609699), etoposide (NSC141540), doxorubicin (NSC123127), gemcitabine (NSC613327), 5-fluorouracil (NSC19893), paclitaxel (NSC125973), vemurafenib (NSC761431), panobinostat (NSC761190), R-306465 (JNJ-16241199; NSC773264), adavosertib (NSC754352), TP-3654 (NSC805149), carboplatin (NSC241240), KSQ-4279 (NSC840948), and staurosporine (NSC755774) were obtained from the National Cancer Institute (NCI) Developmental Therapeutics Program Chemical Repository (34). The FDA-approved anticancer drug set is available from the NCI Developmental Therapeutics Program. […] The stock solutions were prepared in dimethyl sulfoxide (DMSO, Sigma-Aldrich, St. Louis, MO, cat. D2650) at 800-fold the tested concentration and stored at -70 degrees C prior to their use. All drugs and investigational agents were tested over a range starting from a high concentration at or near the clinical Cmax and decreasing in half-log increments. If the clinical Cmax for an agent had not been determined, the highest concentration tested was 10 microM.
2.3 Cell Culture. All cells were maintained in an incubator at 37 degrees C and 5% CO2 with 95% humidity. The PDC lines were cultured according to standard operating procedures established by the NCI PDMR. All PDCs were thawed and cultured in Matrigel-coated flasks prepared with a working solution of 1X Ham's F-12 nutrient mix, without supplementation (Invitrogen, cat. 11765054), 100 U/mL penicillin-streptomycin (Invitrogen, cat. 15140122), and 2.5% Matrigel (Corning Inc., cat. 354248) for the first three passages. The 857933-349-R-J2-PDC line was cultured in 6C/Colon 1B media, which includes advanced DMEM/F-12 (Thermo Fisher Scientific, cat. 12634028), 10 mM HEPES (Thermo Fisher Scientific, cat. 15630080), 1X GlutaMAX supplement (Thermo Fisher Scientific, cat. 35050061), 0.1 mg/mL primocin (InvivoGen, cat. ant-pm-2), 10% defined fetal bovine serum, heat inactivated (HyClone Laboratories Inc., cat. SH30070.03HI), 50% L-WRN conditioned media (ATCC, cat. CRL-3276), 1.25 mM N-Acetyl-L-cysteine (Sigma-Aldrich, cat. A9165), 10 mM nicotinamide (Sigma-Aldrich, cat. N0636), 1X B-27 supplement (Thermo Fisher Scientific, cat. 17504044), 1X N-2 supplement (Thermo Fisher Scientific, cat. 17502048), 10 microM Y-27632 dihydrochloride (Tocris Bioscience, cat. 1254), and 50 ng/mL human EGF recombinant protein (Thermo Fisher Scientific, cat. PHG0311). The 485176-168-R4-J1-PDC line was cultured in Panc media, which includes all 6C/Colon 1B media components plus 100 ng/mL human FGF-10 (Thermo Fisher Scientific, cat. 100-26), 500 nM SB-431542 (Selleckchem, cat. S1067), and gastrin (Tocris, cat. 3006).
[…]
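Note: spheroids exposed to the agents for one week before reading.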
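Throughout, for viability, T/C: percent of vehicle DMSO control viability so 100% = untreated growth.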

Row | Structure (SMILES) | IC50 | viability, T/C (compound 0.0316 µM) | viability, T/C (compound 0.1 µM) | viability, T/C (compound 0.316 µM) | viability, T/C (compound 1 µM) | viability, T/C (compound 3.16 µM) | viability, T/C (compound 10 µM) | viability, T/C (compound 0.000999 µM) | viability, T/C (compound 0.00316 µM) | viability, T/C (compound 0.00999 µM) | viability, T/C (compound 0.0999 µM)
1 | Cc1cnc(CNC(=O)c2c(=O)c3ccc(N4CCCN(C)CC4)nc3n3c2sc2ccccc23)cn1 | – | – | 73.5% [middle of 12 runs] | – | 65.9% [middle of 12 runs] | 56.4% [middle of 12 runs] | – | – | – | – | –
2 | O=C(NO)c1cnc(N2CCN(S(=O)(=O)c3ccc4ccccc4c3)CC2)nc1 | 106 nM and 88 nM and 148 nM | 112% and 98.7% and 110% | 49.4% and 40.7% and 59.1% | 26.3% and 24.7% and 34% | 0.49% and 0.43% and 0.75% | 0.37% and 0.43% and 0.25% | 0.35% and 0.28% and 0.23% | – | – | – | –
3 | O=C(c1cc(Cc2n[nH]c(=O)c3ccccc23)ccc1F)N1CCN(C(=O)C2CC2)CC1 | > 10000 nM | 99.5% and 83.8% and 109% | 96.3% and 85.6% and 96.4% | 88.2% and 96.8% (2×) | 118% and 79.3% and 98.2% | 81% and 79.2% and 90.8% | 74.8% and 64.3% and 66.1% | – | – | – | –
4 | O=c1[nH]cc(F)c(=O)[nH]1 | > 10000 nM | 133% and 103% and 95.3% | 97.8% and 107% and 117% | 85.5% and 104% and 88.7% | 105% and 96.9% and 91.4% | 97% and 95.8% and 105% | 86.7% and 77.5% and 79.2% | – | – | – | –

Second part, led by results:

Row | IC50 | Structure (SMILES) | viability, T/C (compound 0.0316 µM) | viability, T/C (compound 0.1 µM) | viability, T/C (compound 0.316 µM) | viability, T/C (compound 1 µM) | viability, T/C (compound 3.16 µM) | viability, T/C (compound 10 µM) | viability, T/C (compound 0.000999 µM) | viability, T/C (compound 0.00316 µM) | viability, T/C (compound 0.00999 µM) | viability, T/C (compound 0.0999 µM)
5 | > 10000 nM | Cc1cccc(N(C)C(=O)C2C(O)CCN2c2nc(C)cc(C(F)(F)F)c2C#N)c1 (stereo not given) | 108% and 89.4% and 98.2% | 92.7% and 78% and 99.4% | 97.2% and 122% and 88.8% | 99.8% and 91.5% and 99.9% | 97.1% and 94.7% and 111% | 93.6% and 88.1% and 102% | – | – | – | –
6 | > 316 nM | Cn1ncnc1[C@H]1c2n[nH]c(=O)c3cc(F)cc(c23)N[C@@H]1c1ccc(F)cc1 | 101% and 75.7% and 85.6% | – | 73.6% and 88.2% and 69.7% | – | – | – | 102% and 87.8% and 113% | 108% and 103% and 91.4% | 73.5% and 93.9% and 92.7% | 90.7% and 71.7% and 88%
7 | < 31.6 nM | Nc1ccn(C2OC(CO)C(O)C2(F)F)c(=O)n1 (stereo not given) | 44.7% and 45.7% and 52.1% | 46.9% and 45.7% and 47.2% | 49.2% and 45.3% and 41.9% | 52% and 47.8% and 53% | 40.2% and 36.2% and 38.9% | 47.3% and 43.5% and 45.3% | – | – | – | –
